# Measurements as given in patent publication US9096608B2, “Pharmaceutically active pyrazolo-triazine derivatives” (LEAD DISCOVERY CENTER GMBH, priority 2012, dated 2015).
# Assays:
# Assay type in all cases: biochemical
# [1] = molecular target: T1, CDK2/CycA (Homo sapiens, UniProt P24941); experiment: CDK2 Enzymatic Activity Assay (Lance Kinase Activity Assay, FRET); settings: Table 5B; symbols per IC50 ranges of b615
# T1 construct: purchased Proqinase
# Method in brief: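 Compounds serially diluted 1:3 over 8 steps, run with CDK2/CycA, ULight-MBP substrate and ATP in HEPES pH 7.5 buffer for 1 h at room temperature. LANCE TR-FRET detection with Eu-anti-phospho-MBP after EDTA stop; IC50 from sigmoidal dose-response curves.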
# [2] = molecular target: T2, CDK7/CycH/Mat1 (Homo sapiens, UniProt P50613); experiment: CDK7 Enzymatic Activity Assay (Lance Kinase Activity Assay, FRET); settings: Table 5A; 25 μM ATP final; read-out: CDK7: IC50 [mM] for CDK7 inhibition (the above defined ranges apply)
# T2 construct: purchased Carna
# Method in brief: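 TR-FRET (LANCE) kinase assay with ULight-MBP peptide substrate and Eu-labelled anti-phospho antibody; compounds in 8-point 1:3 series in HEPES 50 mM pH 7.5, MgCl2 10 mM, EGTA 1 mM, DTT 2 mM, 0.01% Tween-20.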
# [3] = molecular target: T3, CDK9/Cyclin T1 (Homo sapiens, UniProt P50750); experiment: CDK9 Enzymatic Activity Assay (Lance Kinase Activity Assay, FRET); settings: Table 5B; symbols per IC50 ranges of b615
# T3 construct: purchased Invitrogen
# Method in brief: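 TR-FRET detection of ULight-MBP substrate phosphorylation by CDK9/cyclin T1 using a Eu-anti-phospho-MBP antibody, in 50 mM HEPES pH 7.5, 10 mM MgCl2, 1 mM EGTA, 2 mM DTT, 0.01% Tween-20. Kinase reaction 1 h at room temperature, then EDTA detection buffer for 1 h before reading.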
# T2 sequence (P50613 whole entry): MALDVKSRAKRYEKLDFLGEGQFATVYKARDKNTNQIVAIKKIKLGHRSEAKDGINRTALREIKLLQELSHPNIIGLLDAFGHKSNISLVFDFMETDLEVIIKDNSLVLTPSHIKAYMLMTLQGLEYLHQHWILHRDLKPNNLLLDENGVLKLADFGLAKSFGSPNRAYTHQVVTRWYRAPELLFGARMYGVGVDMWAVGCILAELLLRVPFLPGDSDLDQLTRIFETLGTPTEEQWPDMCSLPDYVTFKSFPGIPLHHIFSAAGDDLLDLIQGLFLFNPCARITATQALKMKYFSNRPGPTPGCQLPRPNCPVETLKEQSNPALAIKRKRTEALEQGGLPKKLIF
# T2 sequence (P51946 whole entry partner): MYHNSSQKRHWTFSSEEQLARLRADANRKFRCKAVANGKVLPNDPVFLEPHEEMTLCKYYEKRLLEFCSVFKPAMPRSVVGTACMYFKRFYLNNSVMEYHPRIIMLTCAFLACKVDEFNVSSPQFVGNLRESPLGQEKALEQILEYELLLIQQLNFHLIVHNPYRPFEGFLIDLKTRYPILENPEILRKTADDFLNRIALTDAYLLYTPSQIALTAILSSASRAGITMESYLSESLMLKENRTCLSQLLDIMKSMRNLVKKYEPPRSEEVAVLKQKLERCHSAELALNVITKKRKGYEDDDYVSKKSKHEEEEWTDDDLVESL
# T2 sequence (P51948 whole entry partner): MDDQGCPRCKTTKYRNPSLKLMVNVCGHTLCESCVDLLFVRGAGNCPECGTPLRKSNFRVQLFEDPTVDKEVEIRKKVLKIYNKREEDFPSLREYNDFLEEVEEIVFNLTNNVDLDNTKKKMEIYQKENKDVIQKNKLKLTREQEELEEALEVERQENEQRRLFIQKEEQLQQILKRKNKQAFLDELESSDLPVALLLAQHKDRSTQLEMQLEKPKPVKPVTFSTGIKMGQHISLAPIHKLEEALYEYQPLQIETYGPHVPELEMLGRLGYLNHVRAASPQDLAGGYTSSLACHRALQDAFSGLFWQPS
# T3 sequence (P50750 whole entry): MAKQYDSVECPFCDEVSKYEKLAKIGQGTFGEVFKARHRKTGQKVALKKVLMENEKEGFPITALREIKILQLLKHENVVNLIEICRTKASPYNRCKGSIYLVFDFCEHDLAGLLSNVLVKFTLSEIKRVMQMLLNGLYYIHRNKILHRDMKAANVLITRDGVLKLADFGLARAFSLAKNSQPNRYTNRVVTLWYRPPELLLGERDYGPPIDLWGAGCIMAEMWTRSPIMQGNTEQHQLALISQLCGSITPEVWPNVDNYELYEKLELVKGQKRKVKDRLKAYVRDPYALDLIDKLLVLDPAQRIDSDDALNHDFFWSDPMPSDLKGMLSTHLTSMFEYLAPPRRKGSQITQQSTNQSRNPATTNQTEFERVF
# T3 sequence (O60563 whole entry partner): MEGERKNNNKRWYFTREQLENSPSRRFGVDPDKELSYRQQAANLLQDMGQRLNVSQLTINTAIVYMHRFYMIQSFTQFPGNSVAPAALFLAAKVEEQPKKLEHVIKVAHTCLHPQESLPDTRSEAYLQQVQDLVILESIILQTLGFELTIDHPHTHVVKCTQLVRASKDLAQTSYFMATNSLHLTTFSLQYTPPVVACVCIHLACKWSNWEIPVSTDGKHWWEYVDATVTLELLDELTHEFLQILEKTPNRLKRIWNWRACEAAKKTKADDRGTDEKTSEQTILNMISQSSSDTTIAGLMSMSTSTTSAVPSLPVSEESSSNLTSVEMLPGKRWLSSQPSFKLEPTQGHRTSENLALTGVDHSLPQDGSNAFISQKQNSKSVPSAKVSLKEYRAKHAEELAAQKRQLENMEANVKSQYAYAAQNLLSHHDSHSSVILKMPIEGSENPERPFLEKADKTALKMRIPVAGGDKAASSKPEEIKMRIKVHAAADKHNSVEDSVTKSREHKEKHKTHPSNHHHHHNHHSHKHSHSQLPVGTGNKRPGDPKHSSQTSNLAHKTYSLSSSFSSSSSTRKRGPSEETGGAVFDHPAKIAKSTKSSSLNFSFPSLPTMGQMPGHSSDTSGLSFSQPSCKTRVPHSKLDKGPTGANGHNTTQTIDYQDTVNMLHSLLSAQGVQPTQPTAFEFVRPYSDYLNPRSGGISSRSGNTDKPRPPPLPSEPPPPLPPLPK
Compound,CDK2 IC50 range class [1],IC50 [2] [nM],CDK9: Selectivity of CDK7 inhibition over CDK9 inhibition [fold] [3]
"COc1cccc([C@H](C)Nc2nc(CN(C)CC3CNC3)nc3c(C(C)C)cnn23)c1 [(XXIX-3), (S)-2-(((azetidin-3-ylmethyl)(methyl)amino)methyl)-8-isopropyl-N-(1-(3-methoxyphenyl)ethyl)pyrazolo[1,5-a][1,3,5]triazin-4-amine]",+++ (IC50>2500 nM),> 100,+++ (IC50>2500 nM)
"COc1cccc([C@H](C)Nc2nc(CNC3CCNC3)nc3c(C(C)C)cnn23)c1 (stereo partly drawn) [(XXIX-4), 8-isopropyl-N-((S)-1-(3-methoxyphenyl)ethyl)-2-((pyrrolidin-3-ylamino)methyl)pyrazolo[1,5-a][1,3,5]triazin-4-amine]",+++ (IC50>2500 nM),30 to 100,+++ (IC50>2500 nM)
"COc1cccc([C@H](C)Nc2nc(CNCCCN3CCOCC3)nc3c(C(C)C)cnn23)c1 [(XXIX-5), (S)-8-isopropyl-N-(1-(3-methoxyphenyl)ethyl)-2-(((3-morpholinopropyl)amino)methyl)pyrazolo[1,5-a][1,3,5]triazin-4-amine]",+++ (IC50>2500 nM),> 100,+++ (IC50>2500 nM)
"COc1cccc([C@H](C)Nc2nc(CN(C)CCN3CCCC3)nc3c(C(C)C)cnn23)c1 [(XXIX-6), (S)-8-isopropyl-N-(1-(3-methoxyphenyl)ethyl)-2-((methyl(2-(pyrrolidin-1-yl)ethyl)amino)methyl)pyrazolo[1,5-a][1,3,5]triazin-4-amine]",+++ (IC50>2500 nM),> 100,+++ (IC50>2500 nM)
"COc1cccc([C@H](C)Nc2nc(CNCCN3CCOCC3)nc3c(C(C)C)cnn23)c1 [(XXIX-7), (S)-8-isopropyl-N-(1-(3-methoxyphenyl)ethyl)-2-(((2-morpholinoethyl)amino)methyl)pyrazolo[1,5-a][1,3,5]triazin-4-amine]",+++ (IC50>2500 nM),> 100,+++ (IC50>2500 nM)
"COc1cccc([C@H](C)Nc2nc(CN(C)CCCN3CCCCC3)nc3c(C(C)C)cnn23)c1 [(XXIX-8), (S)-8-isopropyl-N-(1-(3-methoxyphenyl)ethyl)-2-((methyl(3-(piperidin-1-yl)propyl)amino)methyl)pyrazolo[1,5-a][1,3,5]triazin-4-amine]",+++ (IC50>2500 nM),> 100,+++ (IC50>2500 nM)
"COc1cccc([C@H](C)Nc2nc(CN3CC(N4CCC(F)(F)C4)C3)nc3c(C(C)C)cnn23)c1 [(XXIX-9), (S)-2-((3-(3,3-difluoropyrrolidin-1-yl)azetidin-1-yl)methyl)-8-isopropyl-N-(1-(3-methoxyphenyl)ethyl)pyrazolo[1,5-a][1,3,5]triazin-4-amine]",+++ (IC50>2500 nM),> 100,+++ (IC50>2500 nM)
"COc1cccc([C@H](C)Nc2nc(CN3CC(N4CCCC4=O)C3)nc3c(C(C)C)cnn23)c1 [(XXIX-10), (S)-1-(1-((8-isopropyl-4-((1-(3-methoxyphenyl)ethyl)amino)pyrazolo[1,5-a][1,3,5]triazin-2-yl)methyl)azetidin-3-yl)pyrrolidin-2-one]",+++ (IC50>2500 nM),> 100,+++ (IC50>2500 nM)
"COCCN1CCN(Cc2nc(N[C@@H](C)c3cccc(OC)c3)n3ncc(C(C)C)c3n2)CC1 [(XXIX-11), (S)-8-isopropyl-2-((4-(2-methoxyethyl)piperazin-1-yl)methyl)-N-(1-(3-methoxyphenyl)ethyl)pyrazolo[1,5-a][1,3,5]triazin-4-amine]",+++ (IC50>2500 nM),> 100,+++ (IC50>2500 nM)
